Columns and labels:
clone BAM25 = assay: Cytokine measurement in culture supernatants of clone BAM25; type: cell-based, human; details: for cytokine response to the derivative alone: without Pen G
[1] = tested on: tetanus toxoid-specific T cell clone 1ES4; type: cell-based, human
clone ES5.13 = assay: Cytokine measurement in culture supernatants of clone ES5.13; type: cell-based, human; details: for interference on Pen G-induced IL2 secretion: added together with 0.25 mg/ml of Pen G; for cytokine response to the derivative alone: without Pen G
Method: (§1) For cytokine measurement, 10^5 T cells and 5 x 10^4 autologous, irradiated EBV-B cells were mixed in 200 µl of complete RPMI-FCS medium containing appropriate Ag concentration. After overnight incubation, supernatants were collected and tested for the concentration of IL2, IFNγ and IL4. IL2 was quantified on a IL2-dependent CTLL line. IFNγ was measured by a sandwich ELISA as described (12). IL-4 was measured using the Duo-Set ELISA kit provided by Genzyme Diagnostics, Cambridge, MA. Eventually, cells were kept in culture for another 24 h and cellular proliferation was measured by thymidine uptake as described above.
In a first set of experiments we studied the effect of the Pen V and Amp derivatives on the T cell phenotype induced by Pen G on two hapten-specific CD4^+ cell clones.

[2] = tested on: PBMC from donors allergic to β-lactams; assay: Proliferative response of primary PBMC cultures to Pen G (3H-thymidine incorporation); type: cell-based, human; details: 5 days incubation
Method: (§2) Cells at a concentration of 3 x 10^5/w were stimulated with 3-fold dilutions of Pen G from 3 mg/ml to 0.1 µg/ml. After 5 days incubation at 37°C in 5% CO2, the proliferative response was determined, in one of the plates, as the ^3H-thymidine incorporation after 16 h incubation with […] = 37 kBq ^3H-thymidine (Dupont, Boston, MA). Cells were harvested on GF/A-filters (Dunn Labortechnik GmbH, Asbach, Germany) and the incorporation was measured in an automatic β-counter (Inotech, Asbach, Germany). The second plate was further expanded in IL2-containing medium for 4 days. Cells were then pooled for any given Pen G concentration, washed and rested in the absence of IL2. After another 4 days, cells were harvested and analysed for TCR expression by cell surface staining and IL4/IFNγ production by intracellular staining.
Patients BAM, CAS and ES participating to this study developed allergic reactions after treatment with β-lactam antibiotics and their clinical data are summarized in Table I. At the time of diagnosis they all presented different symptoms after treatment with β-lactams as well as positive LTT in vitro (Table I; ref. 2, 4 and data not shown). […] After 5 days of incubation, the proliferative response was measured in one of the cultures by thymidine incorporation. […] The intensity of the response was dose-dependent, with maximal proliferation at 0.3 mg/ml of Pen G.

[3] = tested on: PBMC from donors allergic to β-lactams; assay: Flow cytometric analysis of intracellular IFNγ and IL4 production in Pen G-stimulated PBMC cultures; type: cell-based, human; details: restimulated with PMA and ionomycin, intracellular staining
Method: as §2
Intracellular staining for cytokines was performed following the protocol described by Murphy et al. (12), with few modifications. […] Samples were resuspended in PBS/BSA and analyzed on a FACScan flow cytometer (Becton Dickinson & Co.). […] Results were analyzed using Cellquest software. T cells were detected by standard surface staining using the PE-conjugated anti human TCRαβ antibody (Clone BMA03, Immunotech, Marseille, France). […]

[4] = tested on: Pen G-specific T cell clones; assay: Proliferation and IL4/IFNγ secretion of a panel of T cell clones at different Pen G doses; type: cell-based, human
Method: T cell clones were generated from Pen G specific T cell lines. Freshly isolated PBMC were stimulated with 1, 0.3, 0.1 mg/ml of Pen G at a density of 2 x 10^5 cells/well in a final volume of 200 µl of complete RPMI containing 5 % HS in 96-well flat bottom culture plates. After 5 days at 37°C and 5 % CO2, 25 U/ml of IL2 was added to the wells. After another 4 days the cultures were pooled, rested for 3 days in the absence of IL2 and subjected to a second round of restimulation using irradiated autologous PBMC as APC and the same dose of Pen G given during the first restimulation. After 3 days the different cultures were again expanded in IL2 containing medium and then cloned by limiting dilution. T cell blasts were seeded at 0.3 cells/well in Terasaki plates (Nunc, Roskilde, Denmark) in the presence of 1 µg/ml PHA and 10^4 irradiated allogeneic PBMC in complete RPMI medium containing 5 % HS and 250 U/ml IL-2. The T cell clones obtained were maintained in culture by periodic stimulation in the presence of irradiated allogeneic PBMC, PHA and IL2.
as §1
In order to evaluate the role of Pen G doses in inducing functional differentiation of established T lymphocytes, a panel of independent Pen G-specific T cell clones was prepared. PBMC from donors two were subjected to two rounds of stimulation, in vitro, with Pen G at concentrations of 1, 0.3 and 0.1 mg/ml in three independent T cell lines. After expansion in IL2-containing medium, each line was independently cloned by limiting dilution. A total of 18 Pen G-specific T cell clones were obtained from donor two and 24 from donor one. The hapten-specific T cell phenotype was induced stimulating each T cell clone with 3-fold dilution of Pen G, from 3 mg/ml to 0.03 mg/ml concentration, in the presence of irradiated autologous EBV-B cells. After 24 h incubation, supernatants were harvested and processed for cytokine measurement, while cells were kept in culture for another 24 h and T cell proliferation was measured by thymidine uptake. We then examined IL4 and IFNγ secretion induced in the presence of the highest and lowest Pen G dose able to trigger cellular proliferation, considering SI values ≥ 2.0 as positive response.

mouse Th1 cells = details: through specific inhibition of p38 MAP kinases; cited from earlier work
[5] = added together with 0.25 mg/ml of Pen G, 24 h
[6] = high concentration, together with 0.25 mg/ml of Pen G
[7] = 0.25 mg/ml of Pen G only, 24 h incubation

## CC1(C)S[C@@H]2[C@H](NC(=O)[C@H](N)c3ccccc3)C(=O)N2[C@H]1C(=O)O [Amp, Ampicillin]
Clone BAM25; [5]
  effect on the Pen G-induced cytokine pattern: did not affect
Clone BAM25; [6]
  effect on IFNγ secretion: slight reduction
Clone BAM25
  cytokine response to the derivative alone: None of them responded
[1]
  effect on cytokine secretion: no effect
Clone ES5.13
  interference on Pen G-induced IL2 secretion: no interference
  cytokine response to the derivative alone: None of them responded

## CC1(C)S[C@@H]2[C@H](NC(=O)Cc3ccccc3)C(=O)N2[C@H]1C(=O)O [Pen G, Penicillin G]
Clone BAM25; [7]
  IFNγ (100% value): 6637 pg/mL
  IL2 (100% value): 80.5 SI of CTLL cells
  IL4 (100% value): 5788 pg/mL
Clone BAM25; Pen G 1 mg/ml, behaved as a Th2 clone
  cytokine pattern: secreting IL4 but not IFNγ
[2]
  Pen G concentration of maximal proliferation: 0.3 mg/mL
[3]
  cells expanded upon in vitro stimulation: mainly IL4^+ and IL4^+IFNγ^+ cells are expanded
Clone ES5.13; [7]
  IL2 (100% value): 40.3 SI
  IL4 (100% value): 5414 pg/mL
[4]; clones from donor one, SI ≥ 2.0 as positive response
  lowest doses capable of triggering cellular proliferation: ≥ 0.3 mg/mL
[4]; clones from donor one, only at the highest dose tested
  dose at which clones could secrete IL4: 3 mg/mL
[4]; clones from donor two
  clones in which lower concentration induced higher level of IFNγ secretion: 14 of the 18
[4]; clones from donor two, number of clones
  clones able to shift from type 0 to type 1 responses: 5
[4]; clones from donor two, SI ≥ 2.0 as positive response
  lowest dose capable of triggering cellular proliferation: 0.03 mg/mL
[4]; clones isolated from donor two
  clones able to shift their phenotype from type 0 to type 1: 35%

## CC1(C)S[C@@H]2[C@H](NC(=O)COc3ccccc3)C(=O)N2[C@H]1C(=O)O [Pen V, Penicillin V]
Clone BAM25; [5]
  concentrations at which IFNγ production is completely abrogated: ≥ 0.1 mg/mL
  effect on IL4 secretion: without affecting IL4 secretion
  reduction of the amount of IL2: about 50%
Clone BAM25
  cytokine response to the derivative alone: None of them responded
[1]
  concentration at which IFNγ secretion is completely abrogated: ≥ 0.1 mg/mL
  effect on IL2 production: unaffected
Clone ES5.13
  interference on Pen G-induced IL2 secretion: no interference
  cytokine response to the derivative alone: None of them responded
Clone ES5.13; [6]
  effect on IL4 production: only a marginal reduction

## C[S+]([O-])c1ccc(-c2nc(-c3ccncc3)c(-c3ccc(F)cc3)[nH]2)cc1 (stereo not drawn) [SB203580]
Mouse Th1 cells
  effect on IFNγ: selectively induces IFNγ downmodulation
